# Results published in patent US9428552B2, “Stem cell mobilization and tissue repair and regeneration” (Wellstat Therapeutics Corporation, priority 2012, dated 2016).
# “Also recorded” adds a separate entry of the source. Ends that are not written are not given here. Peptide text beside a SMILES is read from it.
# Experiments:
# EML-Cl cells = test: CFU-GEMM number of EML cells after 3 hr serum and SCF deprivation; format: cell-based, murine; conditions: for rescue of CFU-GEMM: serum and SCF deprivation, 10 μM
# Experimental: Erythroid myeloid lymphoid (EML) cells are an established multipotent hematopoietic precursor cell line (EML-Cl) that can be maintained in medium including stem cell factor (SCF) and Horse serum (HS). When plated in methylcellulose with cocktail of growth factors EML cells form mixed colonies (CFUmix or CFU-GEMM) containing a mix of erythroid and myeloid cells that can be enumerated after 7 days of incubation.
# Starvation of EML-Cl cell line cells of serum and SCF during 3 hr causes majority of CFUmix to develop apoptosis and die, which decreases their number growing in methylcellulose substantially.
# EML cells were grown in IMDM with 10% HS and 100 ng/ml of SCF in IMDM and used for all experiments in exponential growth phase.
# Cells were washed from serum and growth factor with IMDM two times, counted and placed into 12 ml polypropylene tubes 2×10^6 cells in 2 ml for 3 hr incubation at t-37° C. and 5% CO2.
# Cell suspensions after the incubation were centrifuged, diluted 5 times with IMDM and counted using a hemacytometer. Cells were adjusted to 10^3 cells/mL in IMDM and cell suspension was placed into 50 mL tubes with 4.5 mL of Methylcellulose M3434 mixed well and seeded into 35-mm Petri dishes (Falcon BD351008) at 1 mL/dish. Cells were incubated at 37° C., 5% CO2.
# CFU were scored using an inverted microscope after 7 days of incubation.
# murine recombinant DPPIV = murine recombinant DPPIV (Mus musculus, UniProt P28843); test: Hydrolysis of N-terminal by recombinant DPPIV; format: in vitro ADME; conditions: previously shown
# human recombinant DPPIV = human recombinant DPPIV (Homo sapiens, UniProt P27487); test: Hydrolysis of N-terminal by recombinant DPPIV; format: in vitro ADME; conditions: previously shown
# [1] = Cleavage of peptide during 3 hr incubation with murine bone marrow cells (HPLC, MS); format: in vitro ADME; conditions: 100 μg/ml, 37° C., absence of serum
# Experimental: B6D2F1 mice (HSD) were treated with 100 mg/kg testosterone propionate 24 hr before being sacrificed, femurs were removed and bone marrow cells (BMC) were flushed from bone marrow cavity. BMC—5×10^6 cells/ml was resuspended in IMDM. Cell suspension was placed into 14-ml Falcon tubes (BD). Peptide Compound A, (Think Peptides) was added to cells at 100 μg/ml concentration. The appropriate volume of IMDM was added to another control supernatant tube containing 1 ml of cells. Cells were incubated for 3 hours at 37° C. After 3 hours of incubation, tubes were centrifuged, supernatants were collected and proteins with Mw>10 KD were eliminated by Amicon filtration at 3000 rpm 25 minutes. 0.5 ml of supernatant containing <10 Kd material was collected from each sample and heat inactivated during 10 min at t-70° C. The following samples were prepared for HPLC and MS: Control supernatant (<10 Kd); Supernatant from cells incubated with Compound A (<10 Kd); Compound A (50 μL) spiked into cell culture medium; and Compound C (50 μL) spiked into cell culture medium.
# hindlimb ischemia = test: Unilateral hindlimb ischemia by femoral artery ligation; format: in vivo; conditions: C57/BL6 mice, day 9; peptide 250 μg/kg s.c., DFO 100 mg/kg i.m.
# From the text: Ligation of the femoral artery in mice is an established model of hindlimb ischemia for testing treatments that might improve revascularization and functional recovery.
# A total of 50 C57/B16 8-10 week old female mice were divided into 5 treatment groups (n=10/group).
# • 1. Vehicle Control • 2. DFO (intramuscular) DFO (desferrioxamine) has been reported to improve revascularization by augmenting HIF-1α activation in sites of damage, to elicit secretion of local angiogenic factors and chemotactic signals that attract circulating repair-promoting stem and progenitor cells) • 3. DFO (intramuscular)+Compound C (subcutaneous) • 4. Compound A (subcutaneous) • 5. DFO (intramuscular)+Compound A (subcutaneous)
# Mice were subjected to unilateral total ligation and transection of the femoral artery under anesthesia (2% Isoflurane mixed with 100% oxygen). A unilateral incision was made over the left medial thigh of each mouse. […]
# On day 0, 4, 9, and 14, the condition of left hind limbs were evaluated with Muscle Function Score and Ischemia Score. […]
# Recovery of circulation and function in the hindlimb ischemia model involves angiogenesis and revascularization, a process triggered by oxygen deficits. Revascularization was evaluated on day 14 after artery ligation by counting capillaries in cross sectional histology slides prepared from gastrocnemius muscles from both legs. […]
# CFU-GEMM [2] = test: Effect of S1P gradient disruption (DOP) on mobilization after multiple subcutaneous injections; format: in vivo; conditions: DBA/2J mice, DOP in glucose drinking water
# Experimental: In this experiment the inhibitor of S1P lyase activity, 4-deoxypyridoxine (DOP, Sigma-Aldrich) was administrated to mice in the drinking water in order to test if disruption of S1P gradient has an effect on mobilization induced by Compound A. Fifteen week-old DBA/2J male mice (Jackson Laboratories) were divided into 4 groups of 4 mice each. All Mice received glucose drinking water (10 g/L) throughout the duration of the study. DOP ([…]) was added to the glucose water of two groups. Mice were subcutaneously injected for four consecutive days with 500 μg/kg of Compound A or Saline. At one-hour post injections on day 4, peripheral blood from mice was harvested from the orbital plexus using capillary tubes (VWR) and collected into EDTA-containing tubes (BD). To determine mobilization of colony-forming unit cells out of the peripheral blood, mononuclear cells were plated in mouse methylcellulose complete media (R&D Systems). The cells were placed into 35-mm Petri dishes at 100,000 cells per dish with 5 dishes per group. Cells incubated for 11 days in a 37° C. and 5% CO2 humidified incubator. CFU colonies were then scored using an inverted microscope.
# [3] = system: hematopoietic stem cells (HSC) and their hematopoietic progenitors (HPC); test: Mobilization of stem cells into peripheral blood after single subcutaneous injection (colony-forming assay); format: in vivo; conditions: DBA/2J mice, single 125 μg/kg dose, within one hour of administration
# Experimental: Stimulatory doses of Compound A activate quiescent stem cells, induce them to proliferate and egress from bone marrow into peripheral blood. […]
# After 1 hour, mice were anesthetized and blood was collected through the orbital sinus with heparinized capillary tubes. To enumerate HSC and HPC in peripheral blood, cells were washed, counted and plated in semi-solid Methylcellulose (Stem cell technology) at 100,000 per dish (5 dishes/group) and placed in CO2 incubator at 37° C. Colony-forming unit-granulocyte erythroid macrophage megakaryocyte (CFU-GEMM) and Colony-forming unit-granulocyte macrophage (CFU-GM) were detected under inverted microscope after 7-10 days in culture.
# Caspase-3 = Caspase-3 fluorimetric assay in EML cell lysates after HS and SCF deprivation; format: cell-based, murine; conditions: for Caspase-3 proteolytic activity, Exp 1 / Caspase-3 proteolytic activity, Exp 2 / Caspase-3 proteolytic activity, Exp 3 / Caspase-3 proteolytic activity, Sum of 3 experiments: 10 μM present during starvation, starvation control 100%; for Caspase-3 activation induced by HS and SCF deprivation: EML cells, peptide present during starvation
# Experimental: To assess possible effect of Compound A and other peptides on Caspase-3 enzymatic activity during apoptosis induced by serum starvation fluorimetric assay Caspase-3 assay was performed according to the manufacturer's instructions (ApoAlert Clontech Mountain view CA).
# Cell suspensions after the incubation were divided into two equal tubes (+/−Caspase inhibitor). Cells were centrifuged at 400×g for 5 min and re-suspend in chilled Cell Lysis Buffer with the following incubation on ice for 10 min., cell lysates were centrifugated in a microcentrifuge at max speed for 10 min at 4° C. and transferred into new tubes.
# 50 μl of 2× Reaction buffer/DTT mix and 1 μl of Caspase inhibitor added to 50 μl of cell lysate (+Inhibitor groups). 1 uL DMSO per 50 μL of 2× Reaction buffer was added to samples without inhibitor.
# 5 μL of the 1 mM Caspase-3 Substrate (DEVD-AFC; 50 μM final concentration) were added to each tube and incubated at t-37° C. for 1 hr in a water bath. All samples in duplicates were transferred to a 96 well plate. The plates were analyzed on a fluorescence plate reader (Spectramax Gemini.) at a 400 nm excitation and a 505 nm emission, and Caspase-3 activity was expressed relative to the medium control. Free AFC accumulation that resulted from cleavage of the asparatic-AFC bond monitored by fluorimeter and results in duplicates were recalculated according to the free AFC calibration curve.
# CFU-GEMM [4] = test: Mobilization of CFU-GEMM and CFU-GM in db/db mice with high glucose level; format: in vivo; conditions: 5 mg/kg s.c.
# Experimental: To test mobilizing effect of Compound A in db/db mice with high level of glucose the following experiment was conducted. BKS.Cg-Dock7m+/+Leprdb/J male mice (10 weeks old Jackson Laboratories, stock #000642) were subcutaneously injected with 0.9% saline (vehicle control), 5 mg/kg Compound C, or 10 mg/kg Compound A (ThinkPeptides) for 5 consecutive days. At 7 days post initial injection, peripheral blood from 3 mice per group was harvested from the orbital plexus using capillary tubes (VWR) and collected into EDTA-containing tubes (BD).
# CFU-GEMM and CFU-GM = test: Mobilization of stem cells into peripheral blood after multiple subcutaneous injections; format: in vivo, mice; conditions: dose response
# From the text: This example is based on a protocol for a 5-day course of once-daily Compound A injections into DBA male mice similar to a G-CSF. […]
# […] At 7 days post initial injection, peripheral blood from 3 mice per group was harvested from the orbital plexus using capillary tubes (VWR) and collected into EDTA-containing tubes (VWR). Blood was also harvested and pooled from 3 naïve mice to serve as a naïve control group.
# THP-1 cells = test: Cytokine production by THP-1 cells in response to LPS; format: cell-based; conditions: 4 hours, levels ranging from 1 μM down to 10 nM
# Experimental: THP-1 cells activated with 0.2 μM vitamin-D3 (EMD Biosciences Inc) and cultured in cRPMI [RPMI plus 10% ΔFBS (both Lonza)] were transferred to 24-well dishes. Different concentrations of Compound A or related peptides were added (in triplicate) and the plate placed in a 37° C. incubator.
# After 1 hour, crude-LPS from E. coli 0111:B4 (20 ng-100 ng/ml final conc) was added to some wells. Supernatant aliquots were taken after 4 hours and cytokine levels determined using a cytokine bead array kit (BD558277).
# Chain of human recombinant DPPIV (P27487 whole entry): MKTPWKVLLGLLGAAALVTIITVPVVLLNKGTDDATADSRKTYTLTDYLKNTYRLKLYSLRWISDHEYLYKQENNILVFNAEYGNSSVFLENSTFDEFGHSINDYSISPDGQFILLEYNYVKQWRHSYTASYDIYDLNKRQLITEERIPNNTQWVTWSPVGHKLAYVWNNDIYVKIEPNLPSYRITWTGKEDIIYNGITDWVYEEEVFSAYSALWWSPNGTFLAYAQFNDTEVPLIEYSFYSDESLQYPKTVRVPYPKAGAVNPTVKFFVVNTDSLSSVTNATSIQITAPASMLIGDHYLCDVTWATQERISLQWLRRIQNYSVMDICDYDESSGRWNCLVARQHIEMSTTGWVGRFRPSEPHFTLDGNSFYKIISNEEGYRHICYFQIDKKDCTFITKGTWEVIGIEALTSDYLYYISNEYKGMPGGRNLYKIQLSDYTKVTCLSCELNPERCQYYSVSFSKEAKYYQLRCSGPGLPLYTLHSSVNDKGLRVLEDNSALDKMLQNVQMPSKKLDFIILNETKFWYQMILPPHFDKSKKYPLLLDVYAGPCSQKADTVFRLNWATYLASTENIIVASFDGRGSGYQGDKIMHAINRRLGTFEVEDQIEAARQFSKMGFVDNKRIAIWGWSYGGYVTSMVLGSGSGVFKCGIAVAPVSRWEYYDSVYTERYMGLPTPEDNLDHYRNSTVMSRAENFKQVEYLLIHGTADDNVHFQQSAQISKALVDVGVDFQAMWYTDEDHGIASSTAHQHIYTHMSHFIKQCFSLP
# Chain of murine recombinant DPPIV (P28843 whole entry): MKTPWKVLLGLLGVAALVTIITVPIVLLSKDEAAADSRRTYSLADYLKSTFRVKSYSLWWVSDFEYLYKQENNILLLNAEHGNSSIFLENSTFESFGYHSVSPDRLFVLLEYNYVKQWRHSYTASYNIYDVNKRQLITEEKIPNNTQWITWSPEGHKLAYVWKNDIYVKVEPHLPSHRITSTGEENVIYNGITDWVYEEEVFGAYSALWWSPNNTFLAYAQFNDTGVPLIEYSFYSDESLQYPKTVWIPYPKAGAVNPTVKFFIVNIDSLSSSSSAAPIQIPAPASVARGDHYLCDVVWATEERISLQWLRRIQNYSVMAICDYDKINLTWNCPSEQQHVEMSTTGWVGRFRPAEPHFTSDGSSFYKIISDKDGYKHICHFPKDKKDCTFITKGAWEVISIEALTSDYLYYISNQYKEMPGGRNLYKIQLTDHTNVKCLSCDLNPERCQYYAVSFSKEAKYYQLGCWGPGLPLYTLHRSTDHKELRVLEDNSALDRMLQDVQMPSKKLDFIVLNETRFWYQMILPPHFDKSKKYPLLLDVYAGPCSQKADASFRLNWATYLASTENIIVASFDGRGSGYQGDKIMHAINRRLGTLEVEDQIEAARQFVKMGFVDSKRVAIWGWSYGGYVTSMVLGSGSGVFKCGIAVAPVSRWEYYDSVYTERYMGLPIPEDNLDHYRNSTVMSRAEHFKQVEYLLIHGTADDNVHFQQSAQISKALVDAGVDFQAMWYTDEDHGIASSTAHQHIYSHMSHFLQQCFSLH
molecule,measurement,setting,value
CCCCCCCCCCCC1N[C@H](C(=O)O)CS1 (stereo partly drawn) [CAY10444],rescue of CFU-GEMM,EML-Cl cells,rescued CFU-GEMM
"CC(C)C[C@H](NC(=O)[C@H](CC(=O)O)NC(=O)[C@H](Cc1ccccc1)NC(=O)[C@H](Cc1c[nH]cn1)NC(=O)[C@@H]1CCCN1C(=O)[C@@H](N)Cc1ccccc1)C(=O)N[C@@H](CO)C(=O)N[C@@H](Cc1c[nH]cn1)C(=O)NCC(=O)N[C@@H](CO)C(=O)N[C@@H](C)C(=O)N[C@@H](CCC(N)=O)C(=O)N[C@H](C(=O)N[C@@H](CO)C(=O)N[C@@H](CC(=O)O)C(=O)N[C@@H](CCCCN)C(=O)N1CCC[C@H]1C(=O)O)C(C)C [Compound A, Phe-Pro-His-Phe-Asp-Leu-Ser-His-Gly-Ser-Ala-Gln-Val-Ser-Asp-Lys-Pro] (H-FPHFDLSHGSAQVSDKP-OH; N-terminus and C-terminus assumed)",hydrolysis of N-terminal by murine recombinant DPPIV,murine recombinant DPPIV,can be hydrolyzed
same,hydrolysis of N-terminal by human recombinant DPPIV,human recombinant DPPIV,can be hydrolyzed
same,cleavage after incubation with murine bone marrow cells,[1],proteolyses of the peptide was registered
"CCCCCCCCCCCCC/C=C/[C@@H](O)[C@@H](N)COP(=O)(O)O [Compound S1P, Sphingosine 1-phosphate]",rescue of CFU-GEMM,EML-Cl cells,rescued CFU-GEMM
"CC(=O)N(O)CCCCCNC(=O)CCC(=O)N(O)CCCCCNC(=O)CCC(=O)N(O)CCCCCN [DFO, desferrioxamine]",Muscle Function Score,hindlimb ischemia,maintained impairment
"Cc1ncc(CO)c(C)c1O [DOP, 4-deoxypyridoxine]",mobilization of colony forming cells into peripheral blood,CFU-GEMM [2],decreased mobilization
FC(F)(F)c1cccc(-c2noc(-c3cc(-c4ccccc4)c(C(F)(F)F)s3)n2)c1 [SEW2871],rescue of CFU-GEMM,EML-Cl cells,rescued CFU-GEMM
"FPHFDLSHGSAQV [Compound C, included for comparison with the oligopeptides of this invention]",increase in CFU-GEMM numbers,[3],two-fold
same,"Caspase-3 proteolytic activity, Exp 1",Caspase-3,66%
same,"Caspase-3 proteolytic activity, Exp 2",Caspase-3,83%
same,"Caspase-3 proteolytic activity, Exp 3",Caspase-3,53%
same,"Caspase-3 proteolytic activity, Sum of 3 experiments",Caspase-3,67.3 +/− 15%
same,Caspase-3 activation induced by HS and SCF deprivation,Caspase-3,prevented Caspase-3 activation
same,rescue of colony-forming cells (CFUmix/CFU-GEMM) during starvation,"EML-Cl cells; 3 hr HS and SCF deprivation, compared with combined HS and SCF",rescued colony-forming cells
same,CFU-GEMM / progenitor cell mobilization into peripheral blood,CFU-GEMM [4],did not cause CFU-GEMM mobilization; also recorded: did not mobilize progenitor cells
same,dose with the best effect on CFU-GEMM mobilization,CFU-GEMM and CFU-GM,0.75 mg/kg
JTE-013,rescue of CFU-GEMM,EML-Cl cells,rescued CFU-GEMM
N-acetyl-Ser-Asp-Lys-Pro (Ac-SDKP) [AcSDKP],TNFα secretion,THP-1 cells,strongly inhibited
same,"Caspase-3 proteolytic activity, Exp 1",Caspase-3,70%
same,"Caspase-3 proteolytic activity, Exp 2",Caspase-3,84%
same,"Caspase-3 proteolytic activity, Exp 3",Caspase-3,65%
same,"Caspase-3 proteolytic activity, Sum of 3 experiments",Caspase-3,73 +/− 9.8%
same,Caspase-3 activation induced by HS and SCF deprivation,Caspase-3,prevented Caspase-3 activation
